Test [1] has as its system Jurkat cells. The test can be described thus: Apoptosis in Jurkat cells (TUNEL, sub-G1 DNA, Annexin V). Format: cell-based. Conditions: BH3I-1 100 μM, BH3I-2 30 μM; for TUNEL staining: 48 hr; for sub-G1 DNA content: 72 hr, PI, FACS. How it is done:
FIG. 6C is a series of FACS analysis graphs showing Annexin V staining of Jurkat cells. Jurkat cells were treated with BH3I-1 (100 μM) or BH3I-2 (30 μM) and were stained 4 or 6 hr later with Annexin V-EGFP/PI. The relative amounts of live, apoptotic, and late apoptotic/necrotic cells are shown.
To further examine the ability of BH3Is to induce apoptosis, Jurkat cells were treated with BH3I-1 (100 μM) (FIG. 6A, panels a and b), BH3I-2 (30 μM) (FIG. 6A, panels c and d) or DMSO (FIG. 6A, panels e and f) for 48 hr. The cells were then stained using Hoechst dye and a FragEL TUNEL kit (Oncogene Research Products). […] This was determined by treating Jurkat cells with BH3I-1 (100 μM) or BH3I-2 (30 μM), fixing them 72 hr later, and staining them with propidium iodide (PI). The samples were analyzed by FACS. Finally, BH3Is induced the appearance of Annexin V binding without an increase in PI staining (FIG. 6C).

Test [2] has as its system HeLa cells, Jurkat cells. In words: Cytochrome c release and mitochondrial membrane potential. The settings on record: immunostaining and fractionation, 48 hr. Format: cell-based. As for the experimental part: FIG. 6D is a set of images of cells showing cytochrome c release induced by BH3Is. HeLa cells were treated with 100 μM BH3I-1 for 48 hr and were then stained with Hoechst (a) or cytochrome c antibody (b). The arrows indicate the position of an apoptotic cell.
FIG. 6E is an image of a Western blot analysis of cytochrome c release from Jurkat cells treated with BH3I-1 (100 μM) or BH3I-2 (50 μM) for 48 hr. Cells were fractionated and soluble (S) and heavy membrane (M) fractions were subjected to Western blot analysis using cytochrome c (Pharmingen) and VDAC (Calbiochem) antibodies.
Next, the role of BH3 Is in inducing the release of cytochrome c from mitochondria was examined.

Test [3] has as its target T1, U2AF35 / U2AF65 interaction (Homo sapiens, UniProt Q01081).
T1 construct: made in house; host or cells: U2AF65: TNT wheat germ lysate (Promega)
T1 sequence (Q01081 1-240): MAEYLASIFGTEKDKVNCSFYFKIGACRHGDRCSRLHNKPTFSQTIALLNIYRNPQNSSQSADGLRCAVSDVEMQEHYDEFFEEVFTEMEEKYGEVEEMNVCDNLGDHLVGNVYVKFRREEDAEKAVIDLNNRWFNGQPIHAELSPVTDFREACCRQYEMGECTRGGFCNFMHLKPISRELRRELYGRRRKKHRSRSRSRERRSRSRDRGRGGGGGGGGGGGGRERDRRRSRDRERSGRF
In words: Pulldown of splicing factors (specificity control). The test is classed as binding. The settings on record: selectivity control. How it is done: Next, it was determined whether BH3Is could disrupt the heterodimerization of Bcl-xL with pro-apoptotic proteins from the Bcl-2 family, such as truncated Bid (tBid). Truncation of Bid by caspase-8 activates Bid and dramatically increases its affinity towards anti-apoptotic Bcl-2 family members (Li et al., Cell 94:491-501, 1998). To perform this study, in vitro translation of tBid or U2AF^65 (control) was performed using TNT® Coupled Reticulocyte and Wheat Germ Lysate Systems (Promega) respectively. Bcl-xL, U2AF^35 (control) or corresponding amounts of original Ni-NTA agarose beads (blank) were pre-incubated with the BH3 inhibitors or peptide in 100 μl of PBS for 30 min at 25° C. Then 1 μl of ^35S-labeled tBID or U2AF^65 was added and incubation was continued for 2 hr at 4° C. The samples were subjected to SDS-PAGE, coomassie blue staining and autoradiography.
To determine the specificity of BH3Is, their ability to inhibit other protein-protein interactions was tested using the pulldown assay described above and the splicing factors U2AF^35 and U2AF^65 (Zhang et al, Proc. Natl. Acad. Sci. USA 89:8769-73, 1992). […] BH3Is (80 μM) also had no effect on the interaction between the Apaf-1 CARD domain fragment and caspase-9 in the SELDI assay.

Test [4] concerns the target T2, Bcl-xL (Homo sapiens, UniProt Q07817, DEL45-84).
T2 construct: His6 (C); made in house
In words: NMR titration of Bcl-xL. The settings on record: for relative order of affinities, NMR titrations: rank order. The test is classed as binding. As for the experimental part: To verify this conclusion, NMR titrations of Bcl-xL with BH3I-1s were performed and their Ki values were determined (FIG. 4). […] The BH3I-1s Ki values obtained by the NMR approach agree with the results of both pulldown and SELDI analyses. Therefore, the order of affinities of BH3Is is: BH312′>BH3I-2>BH3I-2″>BH3I-1>BH3I-1′>BH3I-1″>BH3I-1′″.
NMR titration was used to examine whether BH3Iinteracts with the binding pocket of Bcl-xL in a manner similar to Bak BH3 peptide (Hajduk et al., Science 278:497-499, 1997).
Next, changes in Bcl-xL structure upon addition of increasing amounts of BH3Is were determined. Each of the BH3Is induced significant changes in the Bcl-xL structure. The compounds targeted the hydrophobic cleft formed by the BH1, BH2, and BH3 domains on the surface of the Bcl-xL protein, and primarily bound to the area formed by BH1 and BH2 domains.

Test [5] deals with U-937 cells. In words: Cell death by cellular ATP levels. The settings on record: 48 hours. Format: cell-based. How it is done:
(§1) HeLa cells, U-937 cells, or Jurkat cells, each of which endogenously express both Bak and Bcl-xL, were contacted with each of the BH3I chemical compounds identified above, by adding the compound to the cell culture media. Forty-eight hours after the cells received the chemical compound the cell culture sample was evaluated for the level of cell death that had occurred in response to the chemical compound. The level of cell death was determined by measuring cellular ATP levels, wherein a decrease in cellular ATP levels indicated an increase in cell death. In each cell line, cell death was increased in the sample that received one of the above-identified compounds.

Test [6] concerns HeLa cells. In words: Cell death by cellular ATP levels. Format: cell-based. The settings on record: 48 hours. As for the experimental part: as §1
In test [7] the test system is Jurkat cells. The test can be described thus: Cell death by cellular ATP levels. Format: cell-based. The settings on record: 48 hours. How it is done: as §1

T2 sequence (Q07817 with tags, fused parts or gaps DEL45-84 limits assumed): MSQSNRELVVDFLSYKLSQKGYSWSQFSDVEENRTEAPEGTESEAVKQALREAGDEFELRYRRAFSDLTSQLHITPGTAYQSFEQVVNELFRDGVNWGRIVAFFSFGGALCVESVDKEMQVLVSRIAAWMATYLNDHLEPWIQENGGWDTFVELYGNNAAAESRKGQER

In the case of `CC(C)C(C(=O)O)N1C(=O)C(=Cc2ccc(Br)cc2)SC1=S` (stereo in doubt) [BH3I-1], in test [1], the TUNEL staining result is on record as “TUNEL positivity” and the “sub-G1 DNA content” value was “displayed sub-G1 DNA content”. The cytochrome c release result in test [2] is given as “induced cytochrome c release”. The “effect on interaction between splicing factors” value in test [3] was “Neither BH3I-1 nor BH3I-2 affected the interaction”. In test [4], the “NOE magnetization transfer to Bcl-xL residues Y65 and F107” value is “direct contact between BH3I-1 and these residues”; the “relative order of affinities, NMR titrations” value is “BH3I-1>BH3I-1′>BH3I-1″>BH3I-1′″”. The “NMR derived Ki value, compared” value in test [4] (compared with fluorescence polarization Ki of BH3I-2) is “lower than the fluorescence polarization assay derived Ki value of BH3I-2”.
For the compound `CC(C)C(C(=O)O)N1C(=O)/C(=C/c2ccccc2)SC1=S` (stereo not drawn) [BH3I-1″], the “relative order of affinities, NMR titrations” value in test [4] is on record as “BH3I-1>BH3I-1′>BH3I-1″>BH3I-1′″”.
`O=C(Nc1cc(S(=O)(=O)c2ccc(Cl)cc2)ccc1Cl)c1cc(Cl)cc(Br)c1O` [BH3I-2]: the TUNEL staining entry in test [1] is “TUNEL positivity”. In test [1], the “sub-G1 DNA content” value was “displayed sub-G1 DNA content”. In addition, the cytochrome c release result in test [2] was “induced cytochrome c release”. The “effect on interaction between splicing factors” value in test [3] is “Neither BH3I-1 nor BH3I-2 affected the interaction”. For the same compound, the GI50 in test [5], in test [6] and in test [7] was 10 to 15 µM in each case.

The values above are taken from patent publication US7390836B2, “Small molecules used to increase cell death” (priority 1999, dated 2008).
